Patent US20250057791A1, “PROTECTION AGAINST ARTHROPOD PARASITES WITH PURINERGIC RECEPTOR (OPR) ANTAGONISTS” (priority 2021, published 2025)

Legend:
[1] = tested on: A. gambiae mouthpart ATP-sensitive receptor; assay: Electrophysiological response to 200 pM ATP with PR antagonist admixed; assay type: cell-based, Anopheles gambiae; conditions: for effect on EP response to ATP, in words: 200 pM ATP, suramin at 1 nM; for ID95 in nM (±s.e.m.): increasing doses admixed to 200 pM ATP
Method: The tip recording method was used to record action potentials (spikes) from sensory cells in sensilla on A. gambiae labellum lobes.
Sensilla were exposed to test compounds and PR antagonists for ca. 2-4 s and spikes were counted in the first 2 s of recordings. Up to 4 test compounds were tested on a sensillum to evaluate potential agonists, each presented at 200 pM. To study responses as a function of dose for agonists ATP, adenosine, AMP, AMP-CPP and ATP+adenosine, up to 7 recordings were made at increasing doses of agonist from the same sensillum. Unless otherwise stated, recordings were made throughout from 4 to 16 sensilla from individual 4-6-day-old females per dose of agonist, antagonist and metal ion modulator. For example, a response curve established over 6 doses of an antagonist using 8 sensilla per dose involved recording from a sensillum of 48 separate mosquitoes. A given dose of a PR antagonist or metal ion modulator was only presented once to a sensillum. Two-second recordings were imported as ASCII files into DataView software for analysis of spike amplitude. Differences in spike amplitude generated by stimulation of one 8v sensillum/female with 1 mM sucrose (n=294 spikes from 6 females) 200 pM adenosine (n=207 spikes from 7 females) and 200 pM ATP (n=192 spikes from 7 females) were compared by measuring the spike amplitude in mV between the highest point of depolarisation and the lowest point of hyperpolarisation.
Pairwise comparisons of A. gambiae electrophysiological (EP) responses to ATP and adenosine alone and combined with a given dose of PR antagonist, EP responses to ATP alone and combined with a given dose of a metal modulator, and EP responses to ATP prior to and after exposure of a sensillum to a given dose of a PR antagonist were made with a one-tailed Wilcoxon signed-rank test for data showing a non-normal distribution, with a paired Student's t-test for normally distributed data showing homogeneous variance and with a Welch's t-test for normally distributed data showing non-homogeneous variance. Effects on feeding of adding ATP, AMP-CPP, adenosine, ATP+adenosine, AMP and ADP-βS, CPT with ATP or adenosine, TMP with ATP+adenosine, TMP+CPT with ATP+adenosine to the FS for A. gambiae, and of adding PR antagonists with ATP to the FS for A. stephensi were compared using one-tailed Mann-Whitney U-test or Welch's t-test, depending on data distribution; Holm's FWEC was applied where treatment comparisons involved the same positive control. Percent feeding inhibition induced by PR antagonists in A. stephensi was calculated using Abbott's formula.
Dose-response models fitted to mosquito data were generated using the ‘drm’ command in the “drc” R package (version 2.5-12). Best fitting models (goodness of fit) and effects of dose of a compound were assessed using, respectively, ‘modelFit’ and ‘noEffect’ functions in the same R package. A 3-parameter logistic model (L3) was fitted to spike-counts recorded to increasing doses of adenosine, AMP, ATP and AMP-CPP. Spike numbers recorded in response to 200 pM ATP with increasing doses of PR antagonists added were analysed using a 4-parameter log-logistic model (LL.4) for A-317491 and spinorphin, using a 4-parameter Weibull model (W1.4) for PPADS, RB-2 and TMP, and using a 3-parameter log-logistic model (LL.3) for suramin. An L3 model was fitted to proportions of females feeding on increasing doses of ATP. Feeding rates on 20 μM ATP with increasing doses of a PR antagonist added were analysed using a 4-parameter log-logistic model (LL.4) with the median of the positive control (20 μM ATP) fixed as the upper asymptote. Response dynamics in 3-parameter models are related to the slope b, the upper asymptote, and inflexion point of the model e (the ED50 value), whereas 4 parameter models also include the lower asymptote parameter. […]

[2] = tested on: Ornithodorus moubata; assay: Silicone membrane feeding of N3, N4 nymphs, Ornithodorus moubata; assay type: in vivo; conditions: for effect on feeding, compound in solution containing ATP, in words: doses as in Table 9
Method: O. moubata nymphs were fed for 25 min through a membrane (50-75 μm thick) as for hard ticks in glass feeding unit on TFS containing 1000 μM ATP as positive control in each feeding experiment. PR antagonists were added to the TFS as for hard ticks. One compound, TMP was applied onto the membrane in aqueous solution (8 μg TMP in 70 μl) in small drops using a micropipette. Individual nymphs were marked on the dorsum with nail varnish in distinguishable colours and weighed before and after the experiment.
(§1) Uptake of TFS containing PR antagonists, converted to mg/h for hard ticks and weight gains in mg/25 min for soft ticks, was compared to TFS uptake in the corresponding positive controls. […] For tsetse and horn flies the percentage flies that fed per antagonist treatment served as the criterion for inhibition of feeding. As horn fly sexes emerged within 24 h, both sexes were assumed to show the same degree of appetence. In tsetse, males emerged first so a gender-related appetence could not be excluded. No sex-related feeding differences in feeding were found for testse (GLM, P>0.05) so data for the sexes were pooled. Comparisons of percentage fed flies were made using a Bayesian GLM—the most appropriate model considering the zero-inflated distributions shown by the data sets. […] P-values were corrected using Holm's FWEC in multiple comparisons of data for each tick and fly species.

[3] = tested on: Haematobia irritans; assay: Membrane feeding assay, horn fly Haematobia irritans; assay type: in vivo; conditions: for effect on feeding on solutions containing ATP, in words: doses as in Table 10
Method: Flies of both species were transferred 30 min before feeding experiments to feeding cages as used for mosquitoes at 24° C., 80% RH in an environmental cabinet. Teneral tsetse were fed at 2 to 4 days old during the photophase with between 7 and 13 flies per feeding cage, covered with a black cloth. Horn flies were tested at 1 and 2 days old in the photophase with between 6 and 21 flies per cage. Both fly species were fed using small Hemotek feeding reservoirs (29 mm diameter, 1 ml) equipped with a membrane as for mosquitoes. Horn flies were fed for 15 min with feeding reservoirs placed on the cage. For tsetse, cages were closed with black mosquito netting at the bottom to allow flies to feed through the membrane placed under the cage. Feeding time (1.5 to 6 min) for tsetse was adjusted as a function of age to achieve at least 30% feeding on the positive control included in each feeding experiment. The positive control for both fly species contained 150 mM NaCl, 8.9 mM NaHCO3 with 100 μM ATP added, hereafter termed fly feeding solution (FFS). The pH of the FFS was adjusted as for ticks. The effect of TMP on feeding by G. pallidipes was also tested at 16 μg TMP/cm^2 dissolved in 140 μl hexane and applied homogeneously to the membrane surface using a micropipette. Hexane was used to treat the membrane with TMP to avoid the test compound being dispersed by fly wing-fanning. Flies of both species were activated just prior to feeding on a treatment by exhalation into the cage. Tsetse that had fed were identified with swollen abdomens and counted at the end of a feeding experiment. Since it was difficult to ascertain by eye whether a horn fly had fed on a treatment, 10 μl/ml of blue food colorant (No. 4866908, Trawosa AG, St. Gallen, Switzerland) was added. This facilitated the detection of ingested liquid when the abdomen of flies, killed by freezing, was squashed onto filter paper. Only experiments in which the feeding rate by flies was >30% on the positive control were included in analyses.
as §1

[4] = TFS + 100 μM, N3, N4, silicone membrane

| Structure (SMILES) | effect on EP response to ATP, in words [1] | Mean no. of spikes per 2 s (±s.e.m.), ATP + antagonist ([1]; antagonist 0.5 nM + 200 pM ATP) [spikes per 2 s] | weight gain, Median (mg) ([2]; TFS + 1 μM, N3, N4, silicone membrane) [mg/25 min] | weight gain, Median (mg) [2, 4] [mg/25 min] | effect on feeding, compound in solution containing ATP, in words [2] | % Fed, Median ([3]; FFS + 10 μM) [%] | % Fed, Median ([3]; FFS + 100 μM) [%] | effect on feeding on solutions containing ATP, in words [3] | Mean no. of spikes per 2 s (±s.e.m.), ATP + antagonist ([1]; antagonist 0.6 nM + 200 pM ATP) [spikes per 2 s] | ID95 in nM (±s.e.m.) [1] [nM] | weight gain, Median (mg) ([2]; TFS + 500 μM, N3, N4, silicone membrane) [mg/25 min] | % Fed, Median ([3]; FFS + 50 μM) [%] | Mean no. of spikes per 2 s (±s.e.m.), ATP + antagonist ([1]; antagonist 10 nM + 200 pM ATP) [spikes per 2 s] | weight gain, Median (mg) ([2]; 8 μg/cm^2 on membrane over TFS, N3, N4) [mg/25 min] | effect on feeding, compound applied onto the feeding membrane, in words ([2]; dose as in Table 9) | % Fed, Median ([3]; FFS + 500 μM) [%] |
| --- | --- | --- | --- | --- | --- | --- | --- | --- | --- | --- | --- | --- | --- | --- | --- | --- |
| O=C(O)c1cc(C(=O)O)c(C(=O)N(Cc2cccc(Oc3ccccc3)c2)[C@H]2CCCc3ccccc32)cc1C(=O)O [A-317491, 5-[(3-phenoxyphenyl)methyl-[(1S)-1,2,3,4-tetrahydronaphthalen-1-yl]carbamoyl]benzene-1,2,4-tricarboxylic acid] | inhibited | 7.5 | 0.1 | 0 | inhibited feeding | 58.3 | 41.5 | inhibited feeding | – | – | – | – | – | – | – | – |
| Cc1ccc(C(=O)Nc2ccc(S(=O)(=O)O)c3cc(S(=O)(=O)O)cc(S(=O)(=O)O)c23)cc1NC(=O)c1cccc(NC(=O)Nc2cccc(C(=O)Nc3cc(C(=O)Nc4ccc(S(=O)(=O)O)c5cc(S(=O)(=O)O)cc(S(=O)(=O)O)c45)ccc3C)c2)c1 [Suramin] | – | – | – | – | – | – | 46.2 | – | 4.20 | 1.15 | 0 | 61.5 | – | – | – | – |
| Cc1nc(C)c(C)nc1C [TMP, 2,3,5,6-tetramethylpyrazine] | inhibited | – | – | 0.1 | failed to inhibit feeding | – | 37.5 | inhibited feeding | – | 27.50 | – | 50 | 11.2 | 0 | significantly inhibited feeding | 0 |
